Test results from US8987193B2, “Nisin derivatives and the use thereof” (University College Cork—National University of Ireland, Cork, priority 2008, dated 2015).
Ends that are not written are not given here.

Tested on: C. sporogenes CBC5
Assay: Deferred antagonism assay
Format: cell-based, Clostridium sporogenes
Design: key: + = Enhanced bioactivity relative to control; − = Bioactivity equal to or less than control; NA = no activity evident
Settings: XX and XXX hinge mutant producers

Substance	bioactivity relative to a nisin A-producing control
NisinA GLA (ITSISLCTPGCKTGALMGCGLATATCHCSIHVSK; cysteine pairing not given here; also: lantibiotic nisin-A; UniProt P13068 24-57, looked up, variant N20G M21L K22A) [nisin A hinge variant GLA (i.e. N20G, M21L, K22A)]	−
NisinA GVK	−
NisinA HLT (ITSISLCTPGCKTGALMGCHLTTATCHCSIHVSK; cysteine pairing not given here; also: lantibiotic nisin-A; UniProt P13068 24-57, looked up, variant N20H M21L K22T) [nisin A hinge variant HLT (i.e. N20H, M21L, K22T)]	−
NisinA PAA	−
NisinA PAK	−
NisinA PAL (ITSISLCTPGCKTGALMGCPALTATCHCSIHVSK; not fully specified (bridges); also: lantibiotic nisin-A: lanthionine rings and dehydrated residues, places not given here; UniProt P13068 24-57, looked up, variant N20P M21A K22L) [nisin A hinge variant PAL (i.e. N20P, M21A, K22L)]	−
NisinA PAT (ITSISLCTPGCKTGALMGCPATTATCHCSIHVSK; not fully specified (bridges); also: lantibiotic nisin-A: lanthionine rings and dehydrated residues, places not given here; UniProt P13068 24-57, looked up, variant N20P M21A K22T) [nisin A hinge variant PAT (i.e. N20P, M21A, K22T)]	−
NisinA PIA	−
NisinA PIM	−
NisinA PLA (ITSISLCTPGCKTGALMGCPLATATCHCSIHVSK; not fully specified (bridges); also: lantibiotic nisin-A: lanthionine rings and dehydrated residues, places not given here; UniProt P13068 24-57, looked up, variant N20P M21L K22A) [nisin A hinge variant PLA (i.e. N20P, M21L, K22A)]	−
NisinA PMC	−
NisinA PML	−
NisinA PMM	−
NisinA PMQ	−
NisinA PMT	−
NisinA PNR (ITSISLCTPGCKTGALMGCPNRTATCHCSIHVSK; not fully specified (bridges); also: lantibiotic nisin-A: lanthionine rings and dehydrated residues, places not given here; UniProt P13068 24-57, looked up, variant N20P M21N K22R) [nisin A hinge variant PNR (i.e. N20P, M21N, K22R)]	−
NisinA PSL	−
NisinA PTA	−
NisinA PTL (ITSISLCTPGCKTGALMGCPTLTATCHCSIHVSK; thioether (positions not given here); not fully specified (residues 2, 5, 33, bridges); also: lantibiotic nisin A, thioether rings and dehydro residues not given here; UniProt P13068 24-57, looked up, variant N20P M21T K22L) [nisin A hinge variant PTL (i.e. N20P, M21T, K22L)]	−
NisinA QLT (ITSISLCTPGCKTGALMGCQLTTATCHCSIHVSK; not fully specified (bridges); also: lantibiotic nisin-A: lanthionine rings and dehydrated residues, places not given here; UniProt P13068 24-57, looked up, variant N20Q M21L K22T) [nisin A hinge variant QLT (i.e. N20Q, M21L, K22T)]	−
NisinA SVA (ITSISLCTPGCKTGALMGCSVATATCHCSIHVSK; not fully specified (bridges); also: lantibiotic nisin-A: lanthionine rings and dehydrated residues, places not given here; UniProt P13068 24-57, looked up, variant N20S M21V K22A) [nisin A hinge variant SVA (i.e. N20S, M21V, K22A)]	−
